Key:
Assay in all cases: biochemical
Type in all cases: biochemical
[1] = target: T1, 382 unique human kinases (Homo sapiens, UniProt P45984); conditions: kinase JNK2, compound 10 uM; for remaining activity at 10 µM: read-out: % Enzyme Activity (relative to DMSO controls)
T1 construct: purchased Reaction Biology (HotSpot contract assay)

[2] = target: T2, 382 unique human kinases (Homo sapiens, UniProt P15056, K601E); conditions: BRAF (K601E), compound at 10 uM, duplicate values; for remaining activity at 10 µM: read-out: % Enzyme Activity (relative to DMSO controls)
T2 construct: purchased Reaction Biology (HotSpot contract assay)
T2 sequence (P15056 whole entry K601E): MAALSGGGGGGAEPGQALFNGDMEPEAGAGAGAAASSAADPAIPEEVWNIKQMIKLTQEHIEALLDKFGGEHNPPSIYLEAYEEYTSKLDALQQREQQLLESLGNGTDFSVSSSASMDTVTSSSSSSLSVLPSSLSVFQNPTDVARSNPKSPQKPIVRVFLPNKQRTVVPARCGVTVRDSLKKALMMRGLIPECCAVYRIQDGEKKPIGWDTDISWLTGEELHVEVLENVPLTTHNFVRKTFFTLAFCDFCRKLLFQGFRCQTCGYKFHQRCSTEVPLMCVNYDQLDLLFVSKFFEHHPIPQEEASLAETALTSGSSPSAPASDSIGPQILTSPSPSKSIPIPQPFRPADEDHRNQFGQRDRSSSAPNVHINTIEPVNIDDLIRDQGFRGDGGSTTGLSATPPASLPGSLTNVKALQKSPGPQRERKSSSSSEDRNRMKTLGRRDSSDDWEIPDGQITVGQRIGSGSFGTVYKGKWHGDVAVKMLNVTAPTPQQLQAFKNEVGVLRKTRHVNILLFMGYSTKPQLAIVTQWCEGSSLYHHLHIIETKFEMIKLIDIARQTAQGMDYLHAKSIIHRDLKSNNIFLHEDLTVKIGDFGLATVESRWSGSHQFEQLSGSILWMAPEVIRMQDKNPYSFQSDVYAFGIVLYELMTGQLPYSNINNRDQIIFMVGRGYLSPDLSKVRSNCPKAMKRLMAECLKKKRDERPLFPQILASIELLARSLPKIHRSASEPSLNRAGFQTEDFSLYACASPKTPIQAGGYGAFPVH

[3] = target: T3, 382 unique human kinases (Homo sapiens, UniProt P14616); conditions: kinase IRR/INSRR, compound 10 uM; for remaining activity at 10 µM: read-out: % Enzyme Activity (relative to DMSO controls)
T3 construct: purchased Reaction Biology (HotSpot contract assay)
T3 sequence (P14616 27-1297): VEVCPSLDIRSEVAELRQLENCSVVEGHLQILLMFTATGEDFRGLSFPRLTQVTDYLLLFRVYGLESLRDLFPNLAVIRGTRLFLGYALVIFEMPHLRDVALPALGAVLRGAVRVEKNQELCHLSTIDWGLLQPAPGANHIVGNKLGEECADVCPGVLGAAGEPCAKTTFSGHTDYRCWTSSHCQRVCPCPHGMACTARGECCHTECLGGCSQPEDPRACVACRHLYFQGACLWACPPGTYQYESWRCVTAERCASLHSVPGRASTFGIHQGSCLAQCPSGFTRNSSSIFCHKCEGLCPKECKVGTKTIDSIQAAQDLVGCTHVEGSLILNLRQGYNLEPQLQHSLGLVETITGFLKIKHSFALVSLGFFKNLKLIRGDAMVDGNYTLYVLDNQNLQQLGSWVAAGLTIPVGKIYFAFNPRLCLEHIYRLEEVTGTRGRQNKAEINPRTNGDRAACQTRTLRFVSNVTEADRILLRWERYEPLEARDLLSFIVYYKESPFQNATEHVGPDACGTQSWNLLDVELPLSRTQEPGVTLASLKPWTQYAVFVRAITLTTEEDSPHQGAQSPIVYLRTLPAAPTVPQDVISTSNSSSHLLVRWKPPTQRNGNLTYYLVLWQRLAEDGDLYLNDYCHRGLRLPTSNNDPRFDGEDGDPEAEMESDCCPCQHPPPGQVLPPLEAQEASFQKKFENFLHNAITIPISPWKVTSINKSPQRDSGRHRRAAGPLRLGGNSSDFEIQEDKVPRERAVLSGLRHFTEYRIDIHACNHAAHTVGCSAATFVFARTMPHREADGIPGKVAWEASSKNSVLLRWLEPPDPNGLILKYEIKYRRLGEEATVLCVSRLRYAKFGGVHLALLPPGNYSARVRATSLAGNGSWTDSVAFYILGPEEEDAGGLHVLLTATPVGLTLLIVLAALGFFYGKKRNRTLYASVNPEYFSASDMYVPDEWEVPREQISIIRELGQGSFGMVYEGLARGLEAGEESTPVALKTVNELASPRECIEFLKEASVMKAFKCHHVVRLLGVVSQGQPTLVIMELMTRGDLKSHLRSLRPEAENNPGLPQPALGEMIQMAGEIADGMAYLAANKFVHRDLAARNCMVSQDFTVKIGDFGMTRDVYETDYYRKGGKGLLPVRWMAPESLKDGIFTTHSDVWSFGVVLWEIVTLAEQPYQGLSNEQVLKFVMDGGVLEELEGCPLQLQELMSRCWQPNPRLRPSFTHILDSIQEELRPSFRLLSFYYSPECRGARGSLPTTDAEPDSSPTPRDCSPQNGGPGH

[4] = target: T4, 382 unique human kinases (Homo sapiens, UniProt Q32MK0); conditions: MYLK3, 10 uM; for remaining activity at 10 µM: read-out: % Enzyme Activity (relative to DMSO controls)
T4 construct: purchased Reaction Biology (HotSpot contract assay)
T4 sequence (Q32MK0 1-819): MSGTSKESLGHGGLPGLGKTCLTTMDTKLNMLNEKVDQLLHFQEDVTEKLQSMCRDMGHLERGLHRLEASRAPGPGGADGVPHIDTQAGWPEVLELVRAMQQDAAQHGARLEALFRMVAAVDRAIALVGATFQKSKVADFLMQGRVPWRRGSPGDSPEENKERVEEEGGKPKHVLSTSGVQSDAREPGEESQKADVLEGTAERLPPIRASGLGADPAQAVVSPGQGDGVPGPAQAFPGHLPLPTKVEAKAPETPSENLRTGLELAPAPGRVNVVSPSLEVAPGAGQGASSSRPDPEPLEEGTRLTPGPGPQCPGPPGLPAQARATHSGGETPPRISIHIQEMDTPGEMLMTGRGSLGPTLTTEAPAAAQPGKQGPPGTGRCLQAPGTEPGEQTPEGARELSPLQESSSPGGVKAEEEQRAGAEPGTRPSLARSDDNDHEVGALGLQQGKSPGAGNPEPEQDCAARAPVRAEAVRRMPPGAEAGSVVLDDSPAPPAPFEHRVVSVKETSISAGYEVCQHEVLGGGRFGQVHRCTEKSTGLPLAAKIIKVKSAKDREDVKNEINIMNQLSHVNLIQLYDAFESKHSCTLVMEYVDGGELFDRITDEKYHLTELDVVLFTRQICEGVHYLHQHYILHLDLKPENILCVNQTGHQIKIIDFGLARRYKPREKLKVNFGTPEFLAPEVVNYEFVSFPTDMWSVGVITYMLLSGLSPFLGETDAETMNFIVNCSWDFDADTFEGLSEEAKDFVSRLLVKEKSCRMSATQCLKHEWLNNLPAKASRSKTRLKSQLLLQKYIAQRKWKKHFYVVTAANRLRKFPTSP

[5] = target: T5, 382 unique human kinases (Homo sapiens, UniProt Q8N568); conditions: DCAMKL2, 10 uM; for remaining activity at 10 µM: read-out: % Enzyme Activity (relative to DMSO controls)
T5 construct: purchased Reaction Biology (HotSpot contract assay)
T5 sequence (Q8N568 whole entry): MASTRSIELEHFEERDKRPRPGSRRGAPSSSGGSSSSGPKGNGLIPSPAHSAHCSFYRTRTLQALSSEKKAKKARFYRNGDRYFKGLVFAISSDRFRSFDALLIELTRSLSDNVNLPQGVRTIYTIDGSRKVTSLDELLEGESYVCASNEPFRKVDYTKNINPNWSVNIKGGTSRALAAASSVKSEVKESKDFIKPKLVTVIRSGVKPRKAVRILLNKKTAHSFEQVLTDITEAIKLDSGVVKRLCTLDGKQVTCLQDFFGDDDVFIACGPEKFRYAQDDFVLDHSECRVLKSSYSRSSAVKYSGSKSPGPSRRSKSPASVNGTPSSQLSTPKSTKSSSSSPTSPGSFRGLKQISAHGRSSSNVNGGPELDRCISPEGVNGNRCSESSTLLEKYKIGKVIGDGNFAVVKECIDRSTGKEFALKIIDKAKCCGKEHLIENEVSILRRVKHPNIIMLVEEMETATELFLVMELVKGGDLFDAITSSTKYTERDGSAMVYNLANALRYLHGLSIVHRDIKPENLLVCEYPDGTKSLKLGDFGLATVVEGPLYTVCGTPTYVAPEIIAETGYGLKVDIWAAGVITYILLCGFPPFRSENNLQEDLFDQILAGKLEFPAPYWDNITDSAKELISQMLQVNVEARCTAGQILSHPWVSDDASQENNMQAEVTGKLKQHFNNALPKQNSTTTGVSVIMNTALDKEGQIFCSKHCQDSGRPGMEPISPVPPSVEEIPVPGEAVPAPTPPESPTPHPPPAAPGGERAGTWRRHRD

[6] = target: T6, 382 unique human kinases (Homo sapiens, UniProt Q9H093); conditions: SNARK/NUAK2, 10 uM; for remaining activity at 10 µM: read-out: % Enzyme Activity (relative to DMSO controls)
T6 construct: purchased Reaction Biology (HotSpot contract assay)
T6 sequence (Q9H093 1-628): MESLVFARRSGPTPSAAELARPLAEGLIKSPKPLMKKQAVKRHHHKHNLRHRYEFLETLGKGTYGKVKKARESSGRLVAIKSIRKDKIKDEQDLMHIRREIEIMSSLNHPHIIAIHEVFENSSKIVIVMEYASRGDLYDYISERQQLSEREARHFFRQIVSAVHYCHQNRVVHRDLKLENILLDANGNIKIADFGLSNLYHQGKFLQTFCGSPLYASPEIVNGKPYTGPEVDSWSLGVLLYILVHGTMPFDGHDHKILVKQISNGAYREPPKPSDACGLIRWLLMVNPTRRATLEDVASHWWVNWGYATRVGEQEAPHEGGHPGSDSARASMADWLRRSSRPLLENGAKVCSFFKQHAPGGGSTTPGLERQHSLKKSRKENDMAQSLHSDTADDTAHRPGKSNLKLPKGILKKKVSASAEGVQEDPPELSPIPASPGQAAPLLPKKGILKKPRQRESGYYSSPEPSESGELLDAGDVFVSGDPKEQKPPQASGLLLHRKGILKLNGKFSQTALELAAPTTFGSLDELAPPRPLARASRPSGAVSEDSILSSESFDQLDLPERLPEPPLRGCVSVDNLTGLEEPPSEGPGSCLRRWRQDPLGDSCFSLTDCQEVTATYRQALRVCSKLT

T1 sequence (P45984 whole entry): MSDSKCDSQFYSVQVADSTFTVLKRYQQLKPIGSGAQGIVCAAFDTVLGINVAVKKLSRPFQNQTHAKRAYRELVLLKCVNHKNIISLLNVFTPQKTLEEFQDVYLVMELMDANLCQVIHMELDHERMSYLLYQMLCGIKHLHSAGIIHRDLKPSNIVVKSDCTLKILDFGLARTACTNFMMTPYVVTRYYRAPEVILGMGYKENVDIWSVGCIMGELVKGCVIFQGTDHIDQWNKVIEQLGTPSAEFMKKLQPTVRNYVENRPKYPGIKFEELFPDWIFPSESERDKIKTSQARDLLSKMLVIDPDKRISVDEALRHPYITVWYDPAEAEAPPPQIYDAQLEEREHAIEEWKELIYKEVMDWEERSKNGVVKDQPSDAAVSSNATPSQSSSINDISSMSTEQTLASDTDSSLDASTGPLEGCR

Row | Compound | remaining activity at 10 µM [1] [%] | remaining activity at 10 µM [2] [%] | remaining activity at 10 µM [3] [%] | % Enzyme Activity (relative to DMSO controls) [4] [%] | remaining activity at 10 µM [4] [%] | % Enzyme Activity (relative to DMSO controls) [5] [%] | remaining activity at 10 µM [5] [%] | % Enzyme Activity (relative to DMSO controls) [6] [%] | remaining activity at 10 µM [6] [%] | % Enzyme Activity (relative to DMSO controls) [1] [%] | % Enzyme Activity (relative to DMSO controls) [2] [%] | % Enzyme Activity (relative to DMSO controls) [3] [%]
1 | CC(C)c1cc(-c2n[nH]c(=O)n2-c2ccc3c(ccn3C)c2)c(O)cc1O [Ganetespib (STA9090)] | 90 | 107 | 85.7 | – | – | – | – | – | – | – | – | –
2 | CCNC(=O)c1noc(-c2cc(C(C)C)c(O)cc2O)c1-c1ccc(CN2CCOCC2)cc1 [Luminespib] | – | – | – | 99.89 | 100 | 96.30 | 97.8 | 96.83 | 98.6 | – | – | –
3 | CCNC(=O)c1noc(-c2cc(C(C)C)c(O)cc2O)c1-c1ccc(CN2CCOCC2)cc1 [Luminespib (AUY-922)] | 99.7 | 101 | 102 | – | – | – | – | – | – | 99.14 | 100.38 | 101.61
4 | CC(C)c1cc(-c2n[nH]c(=O)n2-c2ccc3c(ccn3C)c2)c(O)cc1O [Ganetespib] | – | – | – | – | 100 | – | 96.7 | – | 100 | – | – | –

Source: publication PMC8550792, “Evolution of kinase polypharmacology across HSP90 drug discovery” (Cell Chemical Biology, 2021)
